From patent US20080038277A1, “Dna Pkinase Inhibitors For Treating Cancer And Diabetes” (priority 2004, published 2008)

Legend:
S473K1 = biological target: T1, S473K1 (Homo sapiens, UniProt P78527); assay: S473K1 (Mono Q fraction 27) kinase assay with FSY peptide plus DNA, or GST-PKBα419-480 and pS473 Western blot; type: biochemical; conditions: LY294002 5 μM, wortmannin 2 μM, staurosporine 5 μM; FSY peptide in presence of DNA and GST-PKBα419-480 (FIGS. 1E and F)
T1 construct: purification and identification of this kinase from HEK293 cells; endogenous in cells; host or cells: HEK293 crude membrane fraction, purified over Q-Sepharose, Mono S and Mono Q
T1 sequence (P78527 whole entry, one chain of several): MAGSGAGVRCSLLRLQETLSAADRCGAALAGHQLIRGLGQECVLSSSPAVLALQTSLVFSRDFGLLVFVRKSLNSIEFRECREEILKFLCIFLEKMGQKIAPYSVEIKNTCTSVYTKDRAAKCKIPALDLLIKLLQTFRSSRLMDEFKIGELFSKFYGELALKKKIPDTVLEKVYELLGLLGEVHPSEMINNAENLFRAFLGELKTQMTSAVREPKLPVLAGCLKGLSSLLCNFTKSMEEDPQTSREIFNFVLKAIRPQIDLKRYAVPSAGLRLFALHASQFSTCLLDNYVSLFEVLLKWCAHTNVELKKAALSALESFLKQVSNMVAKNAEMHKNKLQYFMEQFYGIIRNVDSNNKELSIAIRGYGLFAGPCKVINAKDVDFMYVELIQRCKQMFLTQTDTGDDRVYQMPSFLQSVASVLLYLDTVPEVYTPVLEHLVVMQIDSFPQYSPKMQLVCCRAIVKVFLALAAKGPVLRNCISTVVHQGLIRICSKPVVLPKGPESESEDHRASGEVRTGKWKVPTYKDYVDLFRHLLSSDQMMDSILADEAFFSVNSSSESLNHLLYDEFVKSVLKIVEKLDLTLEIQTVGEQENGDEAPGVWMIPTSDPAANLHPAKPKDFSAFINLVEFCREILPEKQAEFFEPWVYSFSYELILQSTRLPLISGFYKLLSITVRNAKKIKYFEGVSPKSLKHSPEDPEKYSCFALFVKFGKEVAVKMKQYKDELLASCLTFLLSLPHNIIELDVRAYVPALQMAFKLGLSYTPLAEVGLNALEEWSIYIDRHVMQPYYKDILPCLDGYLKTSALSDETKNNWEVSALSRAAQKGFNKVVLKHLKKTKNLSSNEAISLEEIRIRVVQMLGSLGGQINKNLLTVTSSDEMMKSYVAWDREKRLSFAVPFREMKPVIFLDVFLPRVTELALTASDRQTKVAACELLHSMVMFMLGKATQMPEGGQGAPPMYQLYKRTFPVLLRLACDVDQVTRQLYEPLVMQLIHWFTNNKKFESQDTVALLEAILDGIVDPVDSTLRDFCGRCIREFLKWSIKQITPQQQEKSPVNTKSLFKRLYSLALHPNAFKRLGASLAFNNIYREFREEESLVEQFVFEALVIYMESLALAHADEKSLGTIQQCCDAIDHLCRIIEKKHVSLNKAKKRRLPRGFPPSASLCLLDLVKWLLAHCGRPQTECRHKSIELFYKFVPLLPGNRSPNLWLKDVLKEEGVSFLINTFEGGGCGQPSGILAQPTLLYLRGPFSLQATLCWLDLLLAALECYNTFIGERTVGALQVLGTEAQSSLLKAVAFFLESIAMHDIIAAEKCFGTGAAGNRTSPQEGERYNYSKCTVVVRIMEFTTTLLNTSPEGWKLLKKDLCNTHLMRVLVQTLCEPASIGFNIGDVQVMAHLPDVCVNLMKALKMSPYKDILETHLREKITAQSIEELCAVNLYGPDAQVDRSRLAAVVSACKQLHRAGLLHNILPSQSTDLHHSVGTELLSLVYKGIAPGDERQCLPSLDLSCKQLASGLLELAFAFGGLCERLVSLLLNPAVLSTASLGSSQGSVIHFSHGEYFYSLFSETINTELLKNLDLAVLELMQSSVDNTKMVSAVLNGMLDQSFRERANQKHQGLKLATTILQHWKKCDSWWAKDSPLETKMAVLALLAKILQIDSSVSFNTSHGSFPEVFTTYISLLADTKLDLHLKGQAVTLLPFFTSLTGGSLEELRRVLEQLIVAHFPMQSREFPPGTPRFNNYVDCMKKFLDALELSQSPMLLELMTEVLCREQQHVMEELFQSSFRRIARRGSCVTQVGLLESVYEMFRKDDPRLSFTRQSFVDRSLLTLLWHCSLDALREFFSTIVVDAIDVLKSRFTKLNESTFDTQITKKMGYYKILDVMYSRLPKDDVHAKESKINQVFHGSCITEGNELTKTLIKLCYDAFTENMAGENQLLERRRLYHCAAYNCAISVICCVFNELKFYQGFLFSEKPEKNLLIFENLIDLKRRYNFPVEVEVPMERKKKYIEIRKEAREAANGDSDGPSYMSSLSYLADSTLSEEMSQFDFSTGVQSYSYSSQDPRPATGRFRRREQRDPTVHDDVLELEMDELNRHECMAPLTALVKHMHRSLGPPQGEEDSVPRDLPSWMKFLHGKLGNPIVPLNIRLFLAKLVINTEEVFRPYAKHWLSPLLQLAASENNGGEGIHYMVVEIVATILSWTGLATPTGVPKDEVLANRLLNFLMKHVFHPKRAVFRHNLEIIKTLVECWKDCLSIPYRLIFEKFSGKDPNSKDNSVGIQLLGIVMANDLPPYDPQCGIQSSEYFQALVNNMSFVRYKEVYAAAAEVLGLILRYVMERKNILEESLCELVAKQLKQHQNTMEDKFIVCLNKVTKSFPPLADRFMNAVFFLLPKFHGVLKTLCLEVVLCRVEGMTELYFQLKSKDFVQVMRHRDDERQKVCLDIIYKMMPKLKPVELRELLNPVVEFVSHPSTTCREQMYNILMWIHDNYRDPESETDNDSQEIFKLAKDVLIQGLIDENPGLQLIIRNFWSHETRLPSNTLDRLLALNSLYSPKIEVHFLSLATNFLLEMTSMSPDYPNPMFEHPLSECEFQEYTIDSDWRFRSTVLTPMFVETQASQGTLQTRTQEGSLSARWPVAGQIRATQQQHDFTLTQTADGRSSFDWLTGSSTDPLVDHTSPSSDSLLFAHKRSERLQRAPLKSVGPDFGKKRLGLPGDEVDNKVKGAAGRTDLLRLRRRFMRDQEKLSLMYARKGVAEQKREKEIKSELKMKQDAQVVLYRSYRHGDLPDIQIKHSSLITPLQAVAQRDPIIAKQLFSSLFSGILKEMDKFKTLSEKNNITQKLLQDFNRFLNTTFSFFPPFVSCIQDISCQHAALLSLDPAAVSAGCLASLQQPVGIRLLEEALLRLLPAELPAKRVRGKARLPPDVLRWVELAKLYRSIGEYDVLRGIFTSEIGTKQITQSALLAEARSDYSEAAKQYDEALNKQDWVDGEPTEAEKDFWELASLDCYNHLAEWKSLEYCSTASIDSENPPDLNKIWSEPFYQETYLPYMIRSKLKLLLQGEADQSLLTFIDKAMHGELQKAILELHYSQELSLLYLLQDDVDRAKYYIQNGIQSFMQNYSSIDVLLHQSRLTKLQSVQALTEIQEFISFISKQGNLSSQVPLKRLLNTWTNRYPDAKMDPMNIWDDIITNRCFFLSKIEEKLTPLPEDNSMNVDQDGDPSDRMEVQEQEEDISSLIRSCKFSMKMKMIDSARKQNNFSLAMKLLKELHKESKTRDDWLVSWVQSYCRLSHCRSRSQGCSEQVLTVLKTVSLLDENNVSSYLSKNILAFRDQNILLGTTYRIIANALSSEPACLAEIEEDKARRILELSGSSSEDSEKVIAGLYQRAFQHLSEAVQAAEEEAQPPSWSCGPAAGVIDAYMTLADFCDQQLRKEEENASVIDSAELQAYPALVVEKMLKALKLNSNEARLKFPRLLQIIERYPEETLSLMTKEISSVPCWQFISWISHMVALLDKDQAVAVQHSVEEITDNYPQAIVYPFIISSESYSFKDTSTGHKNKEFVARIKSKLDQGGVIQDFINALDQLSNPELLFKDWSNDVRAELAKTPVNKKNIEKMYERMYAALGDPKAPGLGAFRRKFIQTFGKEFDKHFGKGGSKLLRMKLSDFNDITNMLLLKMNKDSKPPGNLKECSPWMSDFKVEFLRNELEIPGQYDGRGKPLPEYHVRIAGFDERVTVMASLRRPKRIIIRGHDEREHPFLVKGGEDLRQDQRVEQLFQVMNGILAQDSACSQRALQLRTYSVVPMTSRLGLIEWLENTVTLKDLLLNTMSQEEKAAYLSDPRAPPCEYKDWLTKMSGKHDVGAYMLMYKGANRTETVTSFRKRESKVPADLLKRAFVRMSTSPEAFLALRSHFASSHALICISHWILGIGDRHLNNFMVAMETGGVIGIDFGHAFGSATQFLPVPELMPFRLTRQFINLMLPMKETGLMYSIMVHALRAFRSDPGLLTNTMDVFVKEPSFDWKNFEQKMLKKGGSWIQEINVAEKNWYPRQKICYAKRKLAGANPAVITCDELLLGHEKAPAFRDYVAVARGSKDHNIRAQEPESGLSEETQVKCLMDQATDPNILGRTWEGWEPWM
Description: FIG. 1. Identification and purification of S473K. (A-C) Mono Q fractions were assayed for S473K activity with the FSY (solid) or FAY peptides (open) in the presence (triangles) or absence (circles) of DNA. […] (B) A 10-μl aliquot of each fraction was subjected to 8% SDS-PAGE and proteins visualized by Coomassie Blue staining. (C) Western blotting of fractions with anti-DNA-PKcs and anti-Ku80/Ku70 antibodies. (D) Recombinant ΔPH-PKBαT309P (PKB) was first incubated with S473K1 (5 μl), 10 μg/ml fetal calf thymus DNA, and 100 μM ATP in kinase buffer for different times. Aliquots of the reaction mixture were removed for assay of PKB activity as described in (11) or for Western blotting with pS473 and pT308 phospho-specific antibodies. […].
All steps were performed at 4° C. Four hundred plates (Ø […]) of HEK293 cells were harvested in ice-cold phosphate-buffered saline and homogenized in ice-cold buffer A (50 mM Tris-HCl pH 7.4, 300 mM sucrose, 1 mM dithiothreitol, 10 mM sodium fluoride, 0.1 mM sodium orthovanadate, 20 nM okadiac acid, 1 mM phenylmethanesulfonyl fluoride and 1 mM benzamidine) using a polytron homogenizer. The nuclear fraction was removed by centrifuging at 1000 g for 10 min and the resulting supernatant was further centrifuged at 100,000 g for 60 min. […]

purified DNA-PK = biological target: T2, purified DNA-PK (Homo sapiens, UniProt P78527); assay: Purified DNA-PK phosphorylation of PKB (FSY peptide / GST-PKBα419-480); type: biochemical; conditions: FSY peptide and GST-PKBα419-480; staurosporine 5 μM (FIGS. 2A and B)
T2 construct: purified DNA-PK (from HeLa cells and human placenta) was tested; purchased Promega; host or cells: HeLa cells and human placenta
Description: FIG. 2. DNA-PK phosphorylates and activates PKB in vitro. (A) Purified DNA-PK (Promega) (25 units) was assayed with 0.1 mg/ml of FSY, FAY and DNA-PK p53 substrate peptide (CTL) in the presence (+) or absence (−) of DNA. […]; aliquots of the reaction mixture were removed for assay of PKB activity as described in FIG. 1D or for Western blotting with pS473 and pT308 phospho-specific antibodies. (D) GST-PKBα419-480 and His-p53 (each 1 μg) were incubated with 25 units of purified DNA-PK and 100 μM [γ-32P]ATP in kinase buffer (11). The reactions were terminated and analyzed on 10% SDS-PAGE followed by autoradiography or 32P determination in excised gel slices.
An antibody specific for PKB phosphorylated on Thr-308 (pT308) was purchased from Cell Signaling Technologies. An antibody specific for PKB phosphorylated on Ser-473 (pS473) was produced and purified as previously described (33). Polyclonal anti-PKB antibody (antibody10) (34) and monoclonal anti-PKB (A4D6) (35) have been described previously. Anti-Ku80, and anti-Ku 70 antibodies were purchased from Transduction Labs. Anti-DNA-PKcs (monoclonal G4) was from Santa Cruz Inc. Double-stranded fetal calf thymus DNA was from Sigma, and purified human DNA-PK protein and p53 substrate peptide […] (36) from Promega. […]

PKB = conditions: cisplatin treatment (ref. 32); cited from earlier work
DNA-PK = conditions: through proteolytic degradation of DNA-PK (ref. 31); cited from earlier work

| Compound | S473K1 activity (S473K1) | phosphorylation of PKB catalyzed by purified DNA-PK (purified DNA-PK) | PKB activity and Ser-473 phosphorylation (PKB) | DNA-PK activity (DNA-PK) |
| --- | --- | --- | --- | --- |
| CN[C@@H]1C[C@H]2O[C@@](C)([C@@H]1OC)n1c3ccccc3c3c4c(c5c6ccccc6n2c5c31)C(=O)NC4 [staurosporine] | not affected | resistant |  |  |
| N.N.[Cl][Pt][Cl] [cisplatin] |  |  | inhibited | decrease |
